# Results from patent US20080260774A1, “Alpha-galactosyl ceramide analogs and their use as immunotherapies” (priority 2007, published 2008).
# “Also recorded” adds a separate entry of the source.
# Legend:
# [1] = test system: human naïve NKTs (CD161^+CD3^+); experiment: Cytokine/chemokine secretion by human naïve CD161+CD3+ NKTs co-cultured with autologous immature CD14+ DCs; format: cell-based; details: for IFN/IL-4 ratio (TH1/TH2 bias): normalized to DMSO control; for induction of IL-3, GM-CSF and IL-15 / secretion of IFN-γ: 10 μg/ml, 18 hour culture; for secretion of IFN-γ: compared with α-GalCer
# BALB/c mice [2] = experiment: Expansion/activation of mouse splenocyte subpopulations 72 h after injection; format: in vivo; details: for B cell expansion: FIGS. 26E, 28E and 30E; for CD8^+/CD4^+ ratio: FIGS. 26H, 28H and 30H; for activation of B cells: IM route; for activation of B cells / total and mature DCs: compared with C1; for total and mature DCs: FIGS. 26B, 28B and 30B
# [3] = test system: syngeneic lung cancer (TC1) cells; experiment: Lung cancer model in mice (TC1, IV inoculation); format: in vivo, mouse; details: for anti-cancer efficacy compared with C1: IV administration
# naïve CD161^+/CD3^+ NKTs = experiment: Human NKT TCR activation (phosphoproteins), glycolipid presented by HeLa, HeLa-CD1d or iDCs, 10 μg/ml; format: cell-based; details: for intracellular phospho-CD3ε / phospho-ERK1/2: 10 μg/ml
# BALB/c mice [4] = experiment: Mouse serum cytokines/chemokines after IV, SubQ or IM injection; format: in vivo; details: for serum IL-2, IL-12, MIP-1β and MCP-1: IV administration
# [5] = test system: syngeneic breast cancer (4T1); experiment: Breast cancer model in mice (4T1, SubQ inoculation); format: in vivo, mouse
# tetanus toxoid (TT) = details: mouse, in vivo
# [6] = test system: extracellular domain of the M2 protein of the H1N1 subtype of the Influenza A virus; details: mouse, in vivo
# [7] = test system: FLU-A virus serotype H1N1 (WSN); experiment: Influenza virus H1N1 (WSN) infection in BALB/c mice; details: mouse, in vivo
# Sphingomonas capsulata = experiment: Antibacterial efficacy in Sphingomonas capsulata infected mice; format: in vivo, mouse; details: for CFU numbers in liver: 100 μg/kg IP, 24 hour after bacterial infection
# Text: Sphingomonas capsulata is a common environmental bacterial strain that is found in many places such as the air and water. It can be easily identified on nutrient agar plates because of its yellow colony color. […] Since the antibacterial activities of glycolipid antigens are mediated through the activation of NKT cells by glycolipid bound-CD1-d molecules, evaluation of the antibacterial efficacies using the disease model of Sphingomonas capsulata infection will focus on the impact of the NKT mediated pathway that is activated by glycolipid bindings. Six to eight week old female C57BL/6 mice were injected IP with Sphingomonas capsulate cells. […] Twenty-four hours after bacterial infection, livers were removed from mice and homogenized. Colony formation units (CFU) of Sphingomonas capsulate in liver homogenates were determined by plating diluted samples on nutrient plates. Colonies were counted after incubation for 48 hours at 37° C. […] To confirm the antibacterial efficacies of these α-GalCer analogs, another study was conducted to repeat the study by treating infected mice with 50 μg/kg in the same disease model. […] Six to eight week old female C57BL/6 mice were injected IP with 5×10^8 Sphingomonas capsulate cells. Mice were grouped into treatment and control groups with 4-6 mice per group. Four hours after the infection, mice in the treatment group were injected IP with testing α-GalCer analogs at 50 or 100 μg/kg, and the control group mice were injected with same volumes of PBS. Twenty-four hours after bacterial infection, mice from all groups were sacrificed. Livers were removed from mice and homogenized in 0.9% NaCl, 0.02% Tween 80 using tissue homogenizers. Colony formation units (CFU) of Sphingomonas capsulate in liver homogenates were determined by plating diluted samples on nutrient plates. Colonies were counted after incubation for 48 hours at 37° C.
# [8] = test system: FLU-A virus serotype H1N1 (WSN); experiment: Cytopathetic effect / virus titer in MDCK cells infected with H1N1 (WSN); format: cell-based
# Procedure: FIG. 60(A-B) show the cytopathetic effect (CPE) of Madin-Darby canine kidney (MDCK) cells in vitro. MDCK cells were pretreated with vehicle, α-GalCer or one of the α-GalCer analogs C13, C14 or C16 at 10 μg/ml for four hours, followed by infection with FLU-A virus serotype H1N1 (WSN) at 10TCID50.
# BALB/c mice were treated via intranasal route with control, α-GalCer (C1) or the α-GalCer analogs C13, C14 or C16 at one hour prior to virus challenge with H1N1 (WSN). […] In general, certain α-GalCer analogs may exert direct anti-viral effects, or act indirectly via immune stimulation. […] MDCK cells were pretreated with vehicle, α-GalCer or one of the α-GalCer analogs C13, C14 or C16 at 10 μg/ml for four hours, followed by infection with FLU-A virus serotype H1N1 (WSN) at 10TCID50.
# [9] = test system: primary naïve human iNKTs; experiment: Cytokine production by primary naïve human iNKTs cultured with autologous immature DCs; format: cell-based; details: compared with C11
# C57BL/6 mice = experiment: Expansion of NKT subsets in spleens of C57BL/6 mice; format: in vivo; details: C57BL/6 Wt, 72 h post IV injection, 0.1 μg per mouse
# [10] = test system: H5 of avian influenza viruses (pHA); format: in vivo, mouse; details: mouse, in vivo
smiles,measurement,setting,value
CCCCCCCCCCCCCCCCCCCCCCCCCC(=O)N[C@@H](CS[C@H]1O[C@H](CO)[C@H](O)[C@H](O)[C@H]1O)[C@H](O)[C@H](O)CCCCCCCCCCCCCC [C4],IFN/IL-4 ratio (TH1/TH2 bias),[1],more TH2-biased
CCCCCCCCCCCCCC[C@@H](O)[C@@H](O)[C@H](CO[C@H]1O[C@H](CO)[C@H](O)[C@H](O)[C@H]1O)NC(=O)CCCCCc1ccccc1 [C10],"induction of IL-3, GM-CSF and IL-15",[1],"greater induction of IL-3, granulocyte/macrophage colony-stimulating factor (GM-CSF), and IL-15"
same,B cell expansion,BALB/c mice [2],more active than C1
same,anti-cancer efficacy compared with C1,[3],significantly greater anti-cancer efficacy than C1
CCCCCCCCCCCCCC[C@@H](O)[C@@H](O)[C@H](CO[C@H]1O[C@H](CO)[C@H](O)[C@H](O)[C@H]1O)NC(=O)CCCCCCCc1ccccc1 [C11],"induction of IL-3, GM-CSF and IL-15",[1],"greater induction of IL-3, granulocyte/macrophage colony-stimulating factor (GM-CSF), and IL-15"
same,secretion of IFN-γ,[1],significantly greater secretion of IFN-γ than α-GalCer
same,TCR activation,"naïve CD161^+/CD3^+ NKTs; CD1d-dependent, HeLa-CD1d or DCs",stronger in TCR activation than compounds C1 and C17
same,intracellular phospho-CD3ε,naïve CD161^+/CD3^+ NKTs; presented by DCs,21.3 folds
same,intracellular phospho-CD3ε,naïve CD161^+/CD3^+ NKTs; presented by HeLa-CD1d cells,10 folds of control
same,phospho-ERK1/2,naïve CD161^+/CD3^+ NKTs; with DCs,48.3 folds
same,phospho-ERK1/2,naïve CD161^+/CD3^+ NKTs; with HeLa-CD1d cells,14.6 folds increase
same,"serum IL-2, IL-12, MIP-1β and MCP-1",BALB/c mice [4],"striking rises in IL-2, IL-12, MIP-1β and MCP-1"
same,CD8^+/CD4^+ ratio,BALB/c mice [2],more potent than C1
same,activation of B cells,BALB/c mice [2],stronger activations of B cells than C1
same,CD8^+ T cells,BALB/c mice [2]; SubQ route,more activity than C1
same,B cell expansion/activation,"BALB/c mice [2]; mouse, in vivo",significant activities
same,NK and NKT expansion/activation,"BALB/c mice [2]; mouse, in vivo",comparable activities as C1
same,tumor nodules on the lung surface,[3]; sacrificed on day 16 after tumor inoculation,reduced number of tumor nodules on the lung surface
same,tumor size,[5]; 16 days after treatment,reduced tumor size
same,tumor growth and survival compared to control,[5]; SubQ delivery,able to suppress tumor growth and prolong survival as compared to control
same,antibody response relative to conventional vaccine,tetanus toxoid (TT),~2 fold
same,durability of adjuvant effects,tetanus toxoid (TT),remarkably durable
same,level of antibody after delayed boost compared with TT+Alum,tetanus toxoid (TT),twice as high as those given TT+Alum
same,adjuvant effect (comparison),[6],best adjuvant effect which was equivalent to complete Freund's adjuvant (CFA)
same,titer relative to C1,[6],3 fold
same,survival,[7],significantly enhanced survival
same,antibacterial efficacies (CFU in liver),Sphingomonas capsulata; 50 μg/kg,significant in comparison to the untreated group
same,difference in the values of the CFU per gram liver among efficacious groups,Sphingomonas capsulata; 50 μg/kg,not statistically significant
same,CFU numbers in liver,Sphingomonas capsulata,significantly lower than the control group
CCCCCCCCCCCCCCCCCCCCCCCCCC(=O)N[C@@H](CO[C@H]1O[C@H](CO)[C@H](O)[C@H](O)[C@H]1O)[C@H](O)[C@H](O)CCCCc1ccccc1 [C12],IFN/IL-4 ratio (TH1/TH2 bias),[1],more TH1-biased
same,total and mature DCs,BALB/c mice [2],significantly greater rises in total and mature DCs than C1
same,expansion/activation of NKs and NKTs,"BALB/c mice [2]; FIGS. 26C-D, 28C-D and 30C-D",best capacity for expansion/activation of NKs and NKTs
same,CD8^+ T cell expansion/activation,"BALB/c mice [2]; FIGS. 26F, 28F and 30F",more active than C1
same,activation of B cells,BALB/c mice [2],stronger activations of B cells than C1
same,anti-cancer efficacy compared with C1,[3],significantly greater anti-cancer efficacy than C1
CCCCCCCCCCCCCC[C@@H](O)[C@@H](O)[C@H](CO[C@H]1O[C@H](CO)[C@H](O)[C@H](O)[C@H]1O)NC(=O)CCCCCCCCCCc1ccccc1 [C16],"induction of IL-3, GM-CSF and IL-15",[1],"greater induction of IL-3, granulocyte/macrophage colony-stimulating factor (GM-CSF), and IL-15"
same,secretion of IFN-γ,[1],significantly greater secretion of IFN-γ than α-GalCer
same,IFN-γ/IL-4 ratio (TH1/TH2 bias),"BALB/c mice [4]; 2 hours, IV route, compared with C1",less TH2 responses than C1
same,"serum IL-2, IL-12, MIP-1β and MCP-1",BALB/c mice [4],"striking rises in IL-2, IL-12, MIP-1β and MCP-1"
same,serum level of IFN-γ,"BALB/c mice [4]; IV route, over 72 hours",level of activity close to that of C1
same,total and mature DCs,BALB/c mice [2],significantly greater rises in total and mature DCs than C1
same,B cell expansion,BALB/c mice [2],most effective in B cell expansion
same,CD8^+/CD4^+ ratio,BALB/c mice [2],more potent than C1
same,activation of B cells,BALB/c mice [2],stronger activations of B cells than C1
same,expansion of splenocytes,"BALB/c mice [2]; IV administration, 72 hours",greater potency than C1
same,CD4^+ T cells,BALB/c mice [2]; SubQ route,more active over control
same,CD8^+ T cells,BALB/c mice [2]; SubQ route,more activity than C1
same,CD8^+ T cell expansion/activation,"BALB/c mice [2]; mouse, in vivo",comparable activities as C1; also recorded: more active than C1
same,NK and NKT expansion/activation,"BALB/c mice [2]; mouse, in vivo",comparable activities as C1
same,expansion/activation of NKs and NKTs,"BALB/c mice [2]; mouse, in vivo",best capacity for expansion/activation of NKs and NKTs
same,anti-cancer efficacy compared with C1,[3],significantly greater anti-cancer efficacy than C1
same,effects on survival compared with C1,[5]; SubQ delivery,did not differ significantly from that of C1
same,suppression of tumor size compared with C1,[5]; SubQ delivery,significantly greater suppression of tumor size than C1
same,tumor growth and survival compared to control,[5]; SubQ delivery,able to suppress tumor growth and prolong survival as compared to control
same,cumulative proportion of survival,[7]; ip,prolonged survival
same,entry/replication of H1N1 virus (virus titer),[8],slight inhibition of the entry/replication of H1N1 virus in vitro
same,antibacterial efficacies (CFU in liver),Sphingomonas capsulata; 50 μg/kg,significant in comparison to the untreated group
same,CFU numbers in liver,Sphingomonas capsulata,significantly lower than the control group
CCCCCCCCCCCCCC[C@@H](O)[C@@H](O)[C@H](CO[C@H]1O[C@H](CO)[C@H](O)[C@H](O)[C@H]1O)NC(=O)CCCCCCCCCCc1ccc(-c2ccccc2)cc1 [C26],IFN-γ/IL4 ratio,[9],higher IFN-γ/IL4 ratio
same,IL-2,[9],higher levels of IL-2
same,total number of NKTs and its two subtypes NKT1 and NKT2,C57BL/6 mice,increase of total number of NKTs
same,adjuvant activities in enhancing the anti-HAc antibody titer,[10],better adjuvant activities than the others in enhancing the antibody titer
same,anti-HA-specific IgG antibody,[10],enhanced
same,effectiveness as adjuvant,[10],particularly effective as adjuvants
